# Legend:
# Assay type in all cases: physicochemical
# [1] = sunscreen solubility: Benzophenone-3, Table IV A
# Source text: (§1) These two sunscreens are difficult to dissolve and keep in solution for use in sunscreen formulations for optimal SPF (sun-protection factors). Higher solvency for a sunscreen ingredient is desirable as it allows higher concentrations of the sunscreen active ingredient in a formulation. This advantageously raises the SPF ratings for the formulation. The liquid organic sunscreens that are commonly used are octyl-methoxy cinnamate (OMC) and octyl salicylate (OS).
# (§2) Solubility/Solvency Tables IVA and IVB show the solubility and concentrations of the sunscreen ingredient in the novel esters of the invention compared to their precursor raw materials (non-benzoate esters).
# [2] = physical properties of benzoate esters compared to precursors, Table II
# Source text: Absence of odor is an important factor in consumer acceptance of cosmetic and toiletry products.
# [3] = sunscreen solubility: PARSOL 1789, Table IV B
# Source text: as §1, §2
# [4] = Hagman readings (particle size), Red No. 21 dispersion, Table VI A; conditions: Red No. 21 35%
# Procedure: (§3) The novel benzoate esters of the invention were tested for pigment and dye dispersing efficacy. Color pastes were prepared by dispersing dry pigment into the oil phase while hand stirring and then passing each mixture through a three roll mill six times, collecting a 16 oz. sample after each pass. The samples collected were subjected to particle size measurements.
# [5] = refractive index of benzoate esters compared to precursors, Table V; conditions: 25° C.
# [6] = Hagman readings (particle size), Red No. 6 Barium Lake dispersion, Table VI A; conditions: Red No. 6 Barium Lake 35%
# Procedure: as §3
# [7] = viscosity readings of Red No. 21 dispersions, Table VI B; conditions: Brookfield LVT-D @ 12 RPM, Red No. 21 35%
# [8] = viscosity readings of titanium dioxide dispersions, Table VI B; conditions: Brookfield LVT-D @ 12 RPM, TiO2 50%
# [9] = Hagman readings (particle size), titanium dioxide dispersion, Table VI A; conditions: TiO2 50%
# Procedure: as §3
# [10] = 23° C., 10 gms sunscreen in 100 gms mixture
# [11] = 30° C., 10 gms sunscreen in 100 gms mixture
# [12] = 30° C., 15 gms sunscreen in 100 gms mixture
compound,measurement,setting,value
"CCCCCCCCCCCCCCCCOC(=O)CCCCCCC/C=C\C[C@H](O)CCCCCC [CR, Cetyl Ricinoleate, reference compound]",Sunscreen solubility (Benzophenone-3),[1]; [10],+
same,Sunscreen solubility (Benzophenone-3),[1]; [11],+
same,Sunscreen solubility (Benzophenone-3),[1]; [12],+
same,Color,[2],light yellow
same,S.G. (specific gravity),[2]; 25° C.,0.874
same,VISCOSITY,"[2]; Brookfield Viscometer, Spindle # 1, 10 rpm",65 cps
same,REFRACTIVE INDEX,[2]; Table II,1.4580
same,Sunscreen solubility (Parsol 1789),[3]; [10],+
same,Sunscreen solubility (Parsol 1789),[3]; [11],+
same,Sunscreen solubility (Parsol 1789),[3]; [12],+
same,Hagman reading (particle size),[4]; pass 1,≤ 39 μm
same,Hagman reading (particle size),[4]; pass 2,≤ 36 μm
same,Hagman reading (particle size),[4]; pass 3,≤ 30 μm
same,Hagman reading (particle size),[4]; pass 4,≤ 26 μm
same,Hagman reading (particle size),[4]; pass 5,≤ 18 μm
same,Hagman reading (particle size),[4]; pass 6,≤ 14 μm
same,"Refractive Index, Typical",[5],1.4580
same,Hagman reading (particle size),[6]; pass 1,≤ 49 μm
same,Hagman reading (particle size),[6]; pass 2,≤ 48 μm
same,Hagman reading (particle size),[6]; pass 3,≤ 40 μm
same,Hagman reading (particle size),[6]; pass 4,≤ 38 μm
same,Hagman reading (particle size),[6]; pass 5,≤ 33 μm
same,Hagman reading (particle size),[6]; pass 6,≤ 30 μm
same,Viscosity reading of dispersion,[7]; pass 1,Out of instrument range
same,Viscosity reading of dispersion,[7]; pass 2,Out of instrument range
same,Viscosity reading of dispersion,[7]; pass 3,Out of instrument range
same,Viscosity reading of dispersion,[7]; pass 4,Out of instrument range
same,Viscosity reading of dispersion,[7]; pass 5,Out of instrument range
same,Viscosity reading of dispersion,[7]; pass 6,Out of instrument range
same,Viscosity reading of dispersion,[8]; pass 1,Out of instrument range
same,Viscosity reading of dispersion,[8]; pass 2,Out of instrument range
same,Viscosity reading of dispersion,[8]; pass 3,Out of instrument range
same,Viscosity reading of dispersion,[8]; pass 4,Out of instrument range
same,Viscosity reading of dispersion,[8]; pass 5,Out of instrument range
same,Viscosity reading of dispersion,[8]; pass 6,Out of instrument range
same,Hagman reading (particle size),[9]; pass 1,≤ 93 μm
same,Hagman reading (particle size),[9]; pass 2,≤ 80 μm
same,Hagman reading (particle size),[9]; pass 3,≤ 80 μm
same,Hagman reading (particle size),[9]; pass 4,≤ 76 μm
same,Hagman reading (particle size),[9]; pass 5,≤ 50 μm
same,Hagman reading (particle size),[9]; pass 6,≤ 43 μm

# Source: US5959130A, “Castor based benzoate esters” (Finetex, Inc., priority 1997, dated 1999)
